# According to US10894948B2, “Resetting pluripotent stem cells” (CAMBRIDGE ENTERPRISE LIMITED, priority 2014, dated 2021):
# Entries after “also recorded” stand apart in the source; their conditions may differ.
# How the values were obtained:
# [1] = tested on: reset cells and conventional PSC; assay: Oxygen consumption rate (SeaHorse extracellular flux); type: cell-based, human; conditions: injected during assay
# Procedure: A. Oxygen consumption rate (OCR). Measurements obtained using a SeaHorse Extracellular Flux analyser.
# Oxygen consumption was measured using an XF^e24 Analyzer (SeaHorse Bioscience) according to the manufacturer's protocol. In brief, SeaHorse plates were pre-treated by coating with laminin and 80,000 cells were seeded on each well the night before the experiment. Culture media were exchanged for XF Base Medium (SeaHorse bioscience) supplemented with 2 mM pyruvate and 20 mM glucose with an adjusted pH of 7.4 and cells incubated at 37° C. in atmospheric CO2 for one hour. Oligomycin (2 μM), FCCP ([…]), Antimycin (1 μM) and Rotenone (1 μM) were injected during assay (XF cell mito stress test kit, Seahorse Bioscience). Mitochondria were stained with Mito Tracker Green FM (final concentration 50 nM, Life Technologies) or Tetramethylrhodamine, ethyl ester (TMRE, final concentration 20 nM, Life Technologies) in the relevant medium for 10 minutes and analysed by confocal microscopy.
# [2] = tested on: Human ES cells Shef6 and H9, which carry the EOS reporter; assay: Resetting without transgenes, EOS-GFP reporter (FACS, colonies); type: cell-based
# Procedure: PDL-HDACi comprises mTeSR™-E6 basal medium (Stem Cell Technologies) supplemented with 1 μM PD0325901, human LIF (10 ng/ml, prepared in house) and a
# HDAC inhibitor such as valproic acid sodium salt (VPC, 0.5-1 mM, Sigma,) or sodium butyrate (SB, 0.5-1 mM, Sigma).
# Optionally a Wnt pathway inhibitor such as XAV939 (2 μM) may be included, constituting PDXL.
# Human ES cells Shef6 and H9, which carry the EOS reporter [Hotta], were plated at a density of 50,000 to 100,000 cells per well of a six well tissue culture dish in KSR/FGF medium supplemented with 10 μM ROCK inhibitor (Y-27632). The day after medium was replaced with resetting medium (PDL-HDACi or PDXL-HDACi) for the following three days. Thereafter the cells were maintained in naïve maintenance medium, T2ilGö-FROCKi (FIG. 30).
# EOS reporter contains a GFPIresPuro cassette driven by LTR of early transposon and a trimer of mouse Oct4 distal enhancer. The EOS reporter in majority of conventional human ES cells is expressed at low to undetectable level by microscope. More than 80 percent of cells do show low to moderate GFP expression by flow cytometry analysis (FACS) (FIG. 31). The resetting medium induced vast cell death and differentiation three days after. The dome shaped GFP positive colonies appears around Day5 to Day7 and peaked after day10 to day 12 (FIG. 32, FIG. 33, FIG. 34). The colonies can then be passaged in bulk or picked singly using TrypLE™ express. Puromycin selection is applied for one or two passages to exclude differentiated cells if needed. The reset cells expressed elevated naïve state markers, TFCP2L1 and DPPA3 from Day7 during resetting (FIG. 35). Two pools, iS6-N and iS6-E, have been maintained over 15 passages and are karyotypically normal by G-band analysis. They form embryoid body readily in low adhesive 96 well plates and up-regulate differentiation markers (FIG. 36).
# H9 and Shef6 cells = assay: Resetting by transient transfection with NANOG and KLF2 plasmids; type: cell-based, human; conditions: pilot experiments
# Excerpt: For transient expression and resetting we first generated H9 and Shef6 cells with an EOS-GFP/puro^R reporter (Hotta et al., 2009) introduced in a piggyBac vector. We have observed that in the PB rather than lentiviral vector context this reporter is initially expressed heterogeneously in conventional PSC and progressively silenced, but is re-expressed during resetting. We used NANOG and KLF2 expression constructs driven by the CAG promoter harbouring a blasticidin resistance gene. One well of a 6-well plate was transfected as above with 3 μg of non-linearised NANOG and KLF2 plasmids. Two days later, medium was switched to N2B27 with PD173074 (PD17, 0.5 μM), PD03 (0.5 μM) and hLIF. At day 4, cells were retransfected and on day 8 medium was changed to t2iL+Gö. Puromycin selection (0.5 μg/ml) was applied from day 12 onwards for two passages. Single colonies were picked on passage 4 or 5. […]
# We investigated the timespan for resetting by inducing NANOG/KLF2 expression with DOX for finite intervals then assaying colony formation in t2iL+Gö. […] These were indistinguishable in morphology from cultures in which transgenes […] or from reset cells generated previously with inducible transgenes. qRT-PCR and immunostaining confirmed sustained expression of ground state pluripotency factors (FIG. 7E, F). […]
# reset cells [3] = assay: Feeder-free culture of reset cells on Matrigel or Laminin 511-E8; type: cell-based, human; conditions: Gö reduced to 2 μM, ROCKi added prior to passaging
# Procedure: For feeder-free culture plates were coated overnight at 4° C. with either diluted BD Matrigel hES-qualified Matrix (1:30) or Laminin 511-E8 (iMatrix-511; Nippi) at […] (Nakagawa et al., 2014). Cells were dissociated in the presence of ROCKi and plated in t2iL with Gö reduced to 2 μM.
# Based on observations with mouse ESC we realised that Gö concentration was critical without buffering by feeders. We therefore reduced Gö to 2 μM and also added ROCKi prior to passaging. […] On both substrates cells could be expanded, albeit more slowly on laminin, and ground state pluripotency factor expression was retained over several passages (FIG. 1L).
# reset H9 cells = assay: Propagation of reset cells in 2iL upon DOX withdrawal; type: cell-based, human; conditions: 5 μM added to 2iL upon DOX withdrawal
# Procedure: B. PKC inhibitor Gö6983 maintains the reset state in the absence of transgene expression. Upon DOX withdrawal cells in 2iL degenerated. […] Note that intrinsic fluorescence of Gö produces a faint red background signal.
# To induce resetting, transfected PSC were dissociated with trypsin and replated as single cells in the presence of ROCK inhibitor. Doxycycline (DOX, 1 μM) was added the next day and 24 h later medium was changed to N2B27 medium (Ndiff227, StemCells Inc., SCS-SF-NB-02) with 1 μM PD0325901 (PD03), human LIF (prepared in-house), DOX and either 3 μM CHIR99021 (2iL+DOX) or 1 μM CHIR99021 (t2iL+DOX). Medium was changed every day. Cells were split every five to seven days after dissociation to single cells with Accutase (Life Technologies) for 10 minutes. Around two weeks after DOX induction, cells were transferred to t2iL+5 μM PKC inhibitor Gö6983 (Sigma-Aldrich) (t2iL+Gö). Reset cells cultured in t2iL+Gö were also passaged every five to seven days as single cells. Cells transferred to t2iL+Gö proliferate slowly for the initial couple of passages after withdrawal of DOX. Cells were maintained on MEF feeders throughout.
# These cultures expressed OCT4 (FIG. 8) and expanded continuously, although proliferation was reduced and morphology less consistent compared to DOX-maintained cells.
# reset cells [4] = assay: Expansion of reset cells in different CH concentrations; type: cell-based, human
# Procedure: C. Expansion of reset cells in different CH concentrations. Cells were plated at 5×10^4 cells per well and cultured for 4 days in PD03 (1 μM) with LIF, and 0, 1, or 3 μM CH. Y axis indicates cell number (×10^4).
# Moderating GSK3 inhibition improves self-renewal of rat ES cells (Chen et al., 2013a; Meek et al., 2013) and we have also observed that combination of Gö6983 with the GSK3 inhibitor CH is unfavourable for mouse ESC propagation (J. Wray and A S, unpublished). We therefore titrated CH. […] Henceforth cells were maintained in titrated 2i with LIF and Gö6983 (t2iL+Gö).
# reset cells [5] = assay: Colony forming assay (alkaline phosphatase staining) in t2iL+Gö; type: cell-based, human; conditions: transgene-free reset cells in t2iL+Gö plus inhibitor, without ROCKi
# Procedure: E. Colony forming assay. Cells maintained in t2iL+Gö were seeded without ROCKi at 2000 cells/well in 12 well dishes in t2iL+Gö plus FGF receptor inhibitor PD17 or TGF-β/activin receptor inhibitor A83-01. Colonies were stained for alkaline phosphatase after 7 days.
# G. Colony forming assays on transgene-free reset cells. Cells maintained in t2iL+Gö were seeded at 2000 cells/well in […] in t2iL+Gö plus FGF receptor inhibitor PD17 or TGF-b/activin receptor inhibitor A83-01 and without ROCKi. Colonies were stained for alkaline phosphatase after 7 days.
# Reset H9 cells maintained in t2iL+Gö were seeded without ROCKi at 2000 cells/well in 12 well dishes in t2iL+Gö. FGF receptor inhibitor PD173074 or TGF-β/activin receptor inhibitor A83-01 were added. Colonies were stained for alkaline phosphatase after 7 days.
# Colony forming assays were carried out on MEF feeder cells by plating 1000 cells per well in 24-well plates, 2000 cells for 12-well plates and 5000 cells for 6-well plates. ROCKi was used for conventional but not reset cells. Activin/TGF β receptor inhibitor A83-01 was used at 0.25 μM where indicated. Plates were fixed and stained for alkaline phosphatase (Sigma-Aldrich, cat. 86R-1KT). Plates were scanned using a CellCelector (Aviso) or cellSens Dimension (Olympus).
# reset iH9-EOS cells = assay: Culture of reset cells in t2iL with Ro-31-8425 replacing Gö6983; type: cell-based, human; conditions: 0.1 μM in t2iL, 25 days (7 passages)
# Procedure: FIG. 41 Bright field and fluorescence images of reset iH9-EOS cells after culture for 25 days (7 passages) in […] with Ro-31-8425 (0.1 μM) replacing Gö6983.
structure (smiles),measurement,setting,value
CC[C@H]1/C=C/C=C/C[C@@H](C)[C@H](O)[C@@](C)(O)C(=O)[C@@H](C)[C@H](O)[C@@H](C)C(=O)[C@@H](C)[C@H](O)[C@@H](C)/C=C/C(=O)O[C@@H]2[C@H](C)[C@H](CC1)O[C@]1(CC[C@H](C)[C@H](C[C@@H](C)O)O1)[C@H]2C [oligomycin],"oxygen consumption rate (OCR), reset cells versus conventional PSC",[1],difference was minimised
"CCCC(CCC)C(=O)[O-].[Na+] [VPC, valproic acid sodium salt]",resetting efficiency (GFP expression by FACS),"[2]; three days VPC treatment, 7 days after resetting, increase from around 1%",~3%
CCN(CC)CCCCNc1ncc2cc(-c3cc(OC)cc(OC)c3)c(NC(=O)NC(C)(C)C)nc2n1 [PD17],effect on the resetting process,H9 and Shef6 cells,might favour resetting
"COc1ccc2c(c1)c(C1=C(c3c[nH]c4ccccc34)C(=O)NC1=O)cn2CCCN(C)C [Gö6983, 3-[1-[3-(dimethylamino)propyl]-5-methoxy-1H-indol-3-yl]-4-(1H-indol-3-yl)-1H-pyrrole-2,5-dione]",undifferentiated colony formation without feeders,reset cells [3],could form undifferentiated colonies on Matrigel or laminin 511-E8
same,maintenance of the reset state in the absence of transgene expression,reset H9 cells,maintained cell proliferation and compact colony morphology; also recorded: allowed maintenance of compact refractile colonies without Venus expression
Oc1nc(-c2ccc(C(F)(F)F)cc2)nc2c1CSCC2 [XAV939],colony yield / resetting efficiency,[2]; 2 μM in transgene-free resetting medium (PDXL),colony yield may be higher for some cell lines but colonies are also more heterogeneous; also recorded: could significantly increase resetting efficiency
Cc1c[nH]c(-c2cnc(NCCNc3ccc(C#N)cn3)nc2-c2ccc(Cl)cc2Cl)n1 [CH],effect on the resetting process,H9 and Shef6 cells,appeared inhibitory to the resetting process
same,growth rate and colony morphology,"reset cells [4]; 1 μM CH, with PD03 (1 μM), LIF and Gö6983",restored growth rate while maintaining morphology
same,growth rate and colony morphology,reset cells [4]; complete absence of CH,"colony morphology improved in the complete absence of CH, but growth rate was reduced"
"CCCC(=O)[O-].[Na+] [Sodium butyrate, sodium butyrate]",resetting induction (GFP expression by FACS),[2]; 7 days after resetting,potent resetting inducer
Cc1cccc(-c2nn(C(=S)Nc3ccccc3)cc2-c2ccnc3ccccc23)n1 [A83-01],proliferation without differentiation,reset cells [5],continued to proliferate without differentiation
Cn1cc(C2=C(c3c4n(c5ccccc35)CCC(CN)C4)C(=O)NC2=O)c2ccccc21 (stereo not shown) [Ro-31-8425],use as alternative PKC inhibitor for culture of reset cells,reset iH9-EOS cells,can be used as an alternative to Gö6983
N#CC(C#N)=NNc1ccc(OC(F)(F)F)cc1 [FCCP],"oxygen consumption rate (OCR), reset cells versus conventional PSC",[1],greater OCR increase in reset cells than conventional PSC
